# Data reported in US20210353631A1, “1,4-Benzoxazines for the Treatment of Cancers and Other Neurodegenerative Diseases” (Neugeneron LLC, priority 2020, published 2021).
# Legend:
# cortical neurons = test: Neuroprotection in cortical neurons treated with homocysteic acid (HCA); format: cell-based; settings: cortical neurons treated with HCA (oxidative stress); 5 uM and 25 uM for 18 h; single experiment in duplicate
# Procedure: (§1) FIGS. 1A to 1C, show: (FIG. 1A) Chemical structure of NGN-006. (FIG. 1B) Neuroprotection in cerebellar granule neurons (CGNs) induced to die by switching from high potassium (HK) to low potassium (LK) medium. HSB-13 and NGN-006 were added to LK-treated CGNs at 1, 5 and 25 uM concentrations. Viability was measured 24 h later and compared with control survival in HK). Results are means values from a single experiment performed in duplicate. […] (FIG. 1C) Neuroprotection in cortical neurons (CGNs) induced to die by treatment with homocysteic acid (HCA) which induces oxidative stress. Neurons were treated either with HCA alone or HCA with 25 uM HSB-13 or 5 uM and 25 uM NGN-006 for 18 h. Viability was measured 24 h later and compared with survival of control (untreated cells, Unt). Results are mean values from a single experiment performed in duplicate.
# (§2) Based on the structure of HSB-13 addition compounds have been synthesized. Among these derivatives was NGN-006 (FIG. 1A). […] Viability was measured 24 h later and compared with control survival in HK). […] Viability was measured 24 h later and compared with survival of control (untreated cells, Unt). […]
# DYRK1A = biological target: T1, DYRK1A (Homo sapiens, UniProt Q13627); test: KINOMEscan kinome profiling (DiscoveRx/Eurofin platform); format: binding; settings: read-out: % control
# T1 construct: purchased DiscoveRx/Eurofin
# DYRK2 = biological target: T2, DYRK2 (Homo sapiens, UniProt Q92630); test: as above; format: binding; settings: read-out: % control
# T2 construct: purchased DiscoveRx/Eurofin
# DCAMKL1 (DCLK1) = biological target: T3, DCAMKL1 (DCLK1) (Homo sapiens, UniProt O15075); test: as above; format: binding; settings: KINOMEscan DCAMKL1 (Entrez DCLK1), read-out: % control
# T3 construct: purchased DiscoveRx/Eurofin
# CSF1R -autoinhibited = biological target: T4, CSF1R -autoinhibited (Homo sapiens, UniProt P07333); test: as above; format: binding; settings: read-out: % control
# T4 construct: purchased DiscoveRx/Eurofin
# T4 sequence (P07333 539-972 limits assumed): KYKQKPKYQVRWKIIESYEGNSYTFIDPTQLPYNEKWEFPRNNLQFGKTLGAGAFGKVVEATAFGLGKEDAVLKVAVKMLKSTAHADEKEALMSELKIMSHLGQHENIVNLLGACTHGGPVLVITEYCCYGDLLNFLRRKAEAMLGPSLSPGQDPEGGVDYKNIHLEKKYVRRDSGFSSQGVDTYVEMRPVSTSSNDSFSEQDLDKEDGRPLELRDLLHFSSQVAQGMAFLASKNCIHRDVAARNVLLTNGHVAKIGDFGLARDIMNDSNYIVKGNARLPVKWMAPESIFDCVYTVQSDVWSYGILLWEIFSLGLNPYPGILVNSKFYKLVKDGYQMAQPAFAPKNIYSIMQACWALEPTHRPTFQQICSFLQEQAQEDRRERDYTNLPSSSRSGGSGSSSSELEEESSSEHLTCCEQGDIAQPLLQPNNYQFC
# EGFR(L747-T751del,Sins) = test: as above; format: binding; settings: 1 uM
# DCAMKL3 (DCLK3) = biological target: T5, DCAMKL3 (DCLK3) (Homo sapiens, UniProt Q9C098); test: as above; format: binding; settings: KINOMEscan DCAMKL3 (Entrez DCLK3), read-out: % control
# T5 construct: purchased DiscoveRx/Eurofin
# DMPK = biological target: T6, DMPK (Homo sapiens, UniProt Q09013); test: as above; format: binding; settings: read-out: % control
# T6 construct: purchased DiscoveRx/Eurofin
# CSNK1A1L = biological target: T7, CSNK1A1L (Homo sapiens, UniProt Q8N752); test: as above; format: binding; settings: read-out: % control
# T7 construct: purchased DiscoveRx/Eurofin
# DRAK2 (STK17B) = biological target: T8, DRAK2 (STK17B) (Homo sapiens, UniProt O94768); test: as above; format: binding
# T8 construct: purchased DiscoveRx/Eurofin
# T8 sequence (O94768 whole entry): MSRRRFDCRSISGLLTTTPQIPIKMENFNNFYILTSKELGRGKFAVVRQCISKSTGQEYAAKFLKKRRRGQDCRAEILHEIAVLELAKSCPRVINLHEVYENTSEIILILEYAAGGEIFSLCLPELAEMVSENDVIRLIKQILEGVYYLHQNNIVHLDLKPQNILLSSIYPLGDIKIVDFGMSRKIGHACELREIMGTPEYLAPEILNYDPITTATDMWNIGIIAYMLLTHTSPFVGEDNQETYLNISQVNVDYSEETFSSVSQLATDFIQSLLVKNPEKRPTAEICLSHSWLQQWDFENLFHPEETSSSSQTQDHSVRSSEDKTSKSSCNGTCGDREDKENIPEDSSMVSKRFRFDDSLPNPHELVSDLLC
# CSNK1A1 = biological target: T9, CSNK1A1 (Homo sapiens, UniProt P48729); test: as above; format: binding; settings: read-out: % control
# T9 construct: purchased DiscoveRx/Eurofin
# T9 sequence (P48729 whole entry): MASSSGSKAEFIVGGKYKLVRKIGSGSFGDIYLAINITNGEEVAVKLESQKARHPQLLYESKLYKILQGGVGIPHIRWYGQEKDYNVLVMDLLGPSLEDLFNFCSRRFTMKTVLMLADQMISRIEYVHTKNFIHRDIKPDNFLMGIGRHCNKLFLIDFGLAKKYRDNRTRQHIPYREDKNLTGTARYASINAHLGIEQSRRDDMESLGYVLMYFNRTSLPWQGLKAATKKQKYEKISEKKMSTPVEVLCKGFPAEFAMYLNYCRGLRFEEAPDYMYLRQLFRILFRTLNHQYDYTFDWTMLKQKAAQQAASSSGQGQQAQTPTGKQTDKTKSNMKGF
# EGFR(E746-A750del) = biological target: T10, EGFR(E746-A750del) (Homo sapiens, UniProt P00533, DEL746-750); test: as above; format: binding; settings: read-out: % control
# T10 construct: purchased DiscoveRx/Eurofin
# CSNK1G1 = biological target: T11, CSNK1G1 (Homo sapiens, UniProt Q9HCP0); test: as above; format: binding; settings: read-out: % control
# T11 construct: purchased DiscoveRx/Eurofin
# T11 sequence (Q9HCP0 whole entry): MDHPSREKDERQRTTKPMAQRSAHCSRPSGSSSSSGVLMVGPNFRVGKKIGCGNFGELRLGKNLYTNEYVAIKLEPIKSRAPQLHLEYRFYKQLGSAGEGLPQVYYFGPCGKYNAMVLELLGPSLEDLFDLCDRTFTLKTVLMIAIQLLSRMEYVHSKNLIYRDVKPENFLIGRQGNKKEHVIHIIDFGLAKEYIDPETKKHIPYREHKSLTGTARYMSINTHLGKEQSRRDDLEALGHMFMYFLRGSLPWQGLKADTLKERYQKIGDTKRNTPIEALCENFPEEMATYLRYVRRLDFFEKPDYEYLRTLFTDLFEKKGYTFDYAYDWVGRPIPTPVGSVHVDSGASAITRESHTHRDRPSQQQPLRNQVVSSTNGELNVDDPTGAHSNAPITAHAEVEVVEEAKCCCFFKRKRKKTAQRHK
# DAPK3 = biological target: T12, DAPK3 (Homo sapiens, UniProt O43293); test: as above; format: binding; settings: read-out: % control
# T12 construct: purchased DiscoveRx/Eurofin
# EGFR = biological target: T13, EGFR (Homo sapiens, UniProt P00533); test: as above; format: binding; settings: read-out: % control
# T13 construct: purchased DiscoveRx/Eurofin
# DMPK2 (CDC42BPG) = biological target: T14, DMPK2 (CDC42BPG) (Homo sapiens, UniProt Q6DT37); test: as above; format: binding; settings: KINOMEscan DMPK2 (Entrez CDC42BPG), read-out: % control
# T14 construct: purchased DiscoveRx/Eurofin
# GSK3β = GSK3β (Homo sapiens, UniProt P49841); test: Kinome profiling of NGN-006; format: binding; settings: kinase that HSB-13 inhibits
# DAPK1 = biological target: T15, DAPK1 (Homo sapiens, UniProt P53355); test: KINOMEscan kinome profiling (DiscoveRx/Eurofin platform); format: binding; settings: read-out: % control
# T15 construct: purchased DiscoveRx/Eurofin
# CSK = biological target: T16, CSK (Homo sapiens, UniProt P41240); test: as above; format: binding; settings: read-out: % control
# T16 construct: purchased DiscoveRx/Eurofin
# [1] = biological target: T17, EGFR(L747-E749del, A750P) (Homo sapiens, UniProt P00533, A750P/DEL747-749); test: as above; format: binding; settings: read-out: % control
# T17 construct: purchased DiscoveRx/Eurofin
# T17 sequence (P00533 with tags, fused parts or gaps DEL747-749/A750P): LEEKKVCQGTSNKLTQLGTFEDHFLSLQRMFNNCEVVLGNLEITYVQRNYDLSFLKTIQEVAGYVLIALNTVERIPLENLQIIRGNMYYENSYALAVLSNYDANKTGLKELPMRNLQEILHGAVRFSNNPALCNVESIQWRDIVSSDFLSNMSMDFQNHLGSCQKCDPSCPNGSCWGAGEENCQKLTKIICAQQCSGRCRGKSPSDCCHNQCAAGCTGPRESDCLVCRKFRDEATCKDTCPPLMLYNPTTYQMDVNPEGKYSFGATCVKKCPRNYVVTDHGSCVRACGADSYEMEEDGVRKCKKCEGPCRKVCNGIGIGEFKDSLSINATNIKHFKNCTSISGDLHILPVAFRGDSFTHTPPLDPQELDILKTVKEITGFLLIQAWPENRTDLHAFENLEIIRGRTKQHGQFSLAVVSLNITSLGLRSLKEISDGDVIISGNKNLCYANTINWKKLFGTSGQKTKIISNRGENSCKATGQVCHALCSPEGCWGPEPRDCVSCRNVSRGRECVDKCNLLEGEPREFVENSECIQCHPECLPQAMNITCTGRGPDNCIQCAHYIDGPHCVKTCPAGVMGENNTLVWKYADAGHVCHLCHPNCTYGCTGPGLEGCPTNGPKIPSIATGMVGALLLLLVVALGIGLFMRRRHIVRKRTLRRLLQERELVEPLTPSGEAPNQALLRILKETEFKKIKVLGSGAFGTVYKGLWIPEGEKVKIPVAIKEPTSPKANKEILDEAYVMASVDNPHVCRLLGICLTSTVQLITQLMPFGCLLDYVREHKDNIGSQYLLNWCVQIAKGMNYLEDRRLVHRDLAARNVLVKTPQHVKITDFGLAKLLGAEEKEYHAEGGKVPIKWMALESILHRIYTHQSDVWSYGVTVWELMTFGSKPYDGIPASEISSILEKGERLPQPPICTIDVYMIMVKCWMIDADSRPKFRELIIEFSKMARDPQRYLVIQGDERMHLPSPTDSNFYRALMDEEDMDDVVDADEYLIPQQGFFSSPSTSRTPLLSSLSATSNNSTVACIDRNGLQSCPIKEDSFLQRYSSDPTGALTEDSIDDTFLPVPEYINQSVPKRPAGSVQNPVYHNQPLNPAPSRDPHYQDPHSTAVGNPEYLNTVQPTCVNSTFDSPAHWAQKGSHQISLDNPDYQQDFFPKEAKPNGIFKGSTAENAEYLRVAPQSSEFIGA
# CSNK1E = biological target: T18, CSNK1E (Homo sapiens, UniProt P49674); test: as above; format: binding; settings: read-out: % control
# T18 construct: purchased DiscoveRx/Eurofin
# [2] = biological target: other members of the DAPK family; test: Kinome profiling of NGN-006; format: binding
# CSNK1G2 = biological target: T19, CSNK1G2 (Homo sapiens, UniProt P78368); test: KINOMEscan kinome profiling (DiscoveRx/Eurofin platform); format: binding; settings: read-out: % control
# T19 construct: purchased DiscoveRx/Eurofin
# CLK2 = biological target: T20, CLK2 (Homo sapiens, UniProt P49760); test: as above; format: binding; settings: read-out: % control
# T20 construct: purchased DiscoveRx/Eurofin
# CSF1R = biological target: T21, CSF1R (Homo sapiens, UniProt P07333); test: as above; format: binding; settings: read-out: % control
# T21 construct: purchased DiscoveRx/Eurofin
# DDR2 = biological target: T22, DDR2 (Homo sapiens, UniProt Q16832); test: as above; format: binding; settings: read-out: % control
# T22 construct: purchased DiscoveRx/Eurofin
# T22 sequence (Q16832 22-855): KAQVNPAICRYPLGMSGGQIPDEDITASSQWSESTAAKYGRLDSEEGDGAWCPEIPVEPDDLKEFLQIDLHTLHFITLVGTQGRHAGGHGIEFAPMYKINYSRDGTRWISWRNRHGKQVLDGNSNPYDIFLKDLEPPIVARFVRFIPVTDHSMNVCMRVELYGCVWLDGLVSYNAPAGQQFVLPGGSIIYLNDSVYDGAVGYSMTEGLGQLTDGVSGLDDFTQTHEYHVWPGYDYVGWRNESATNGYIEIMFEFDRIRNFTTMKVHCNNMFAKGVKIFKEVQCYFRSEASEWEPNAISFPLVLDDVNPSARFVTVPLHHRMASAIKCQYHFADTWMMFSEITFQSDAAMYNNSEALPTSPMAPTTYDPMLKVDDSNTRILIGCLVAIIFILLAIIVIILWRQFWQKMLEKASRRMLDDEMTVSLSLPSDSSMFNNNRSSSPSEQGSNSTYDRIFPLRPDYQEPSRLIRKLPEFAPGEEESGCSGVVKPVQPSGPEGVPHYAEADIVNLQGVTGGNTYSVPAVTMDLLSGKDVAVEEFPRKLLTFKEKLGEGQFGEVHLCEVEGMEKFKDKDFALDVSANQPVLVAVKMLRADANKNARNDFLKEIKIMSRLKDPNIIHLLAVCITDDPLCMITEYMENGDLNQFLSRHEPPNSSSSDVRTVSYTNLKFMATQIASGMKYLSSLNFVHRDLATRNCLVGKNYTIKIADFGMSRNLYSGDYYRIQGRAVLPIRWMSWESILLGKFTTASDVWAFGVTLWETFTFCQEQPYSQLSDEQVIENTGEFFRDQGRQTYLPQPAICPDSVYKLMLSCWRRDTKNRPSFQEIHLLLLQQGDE
# [3] = biological target: T23, EGFR(L747-S752del, P753S) (Homo sapiens, UniProt P00533, DEL747-752/P753S); test: as above; format: binding; settings: read-out: % control
# T23 construct: purchased DiscoveRx/Eurofin
# CIT = biological target: T24, CIT (Homo sapiens, UniProt O14578); test: as above; format: binding; settings: read-out: % control
# T24 construct: purchased DiscoveRx/Eurofin
# DCAMKL2 (DCLK2) = biological target: T25, DCAMKL2 (DCLK2) (Homo sapiens, UniProt Q8N568); test: as above; format: binding; settings: KINOMEscan DCAMKL2 (Entrez DCLK2), read-out: % control
# T25 construct: purchased DiscoveRx/Eurofin
# CSNK2A1 = biological target: T26, CSNK2A1 (Homo sapiens, UniProt P68400); test: as above; format: binding; settings: read-out: % control
# T26 construct: purchased DiscoveRx/Eurofin
# DAPK2 = biological target: T27, DAPK2 (Homo sapiens, UniProt Q9UIK4); test: as above; format: binding; settings: read-out: % control
# T27 construct: purchased DiscoveRx/Eurofin
# CSNK1D = biological target: T28, CSNK1D (Homo sapiens, UniProt P48730); test: as above; format: binding; settings: read-out: % control
# T28 construct: purchased DiscoveRx/Eurofin
# CTK (MATK) = biological target: T29, CTK (MATK) (Homo sapiens, UniProt P42679); test: as above; format: binding; settings: KINOMEscan CTK (Entrez MATK), read-out: % control
# T29 construct: purchased DiscoveRx/Eurofin
# T29 sequence (P42679 whole entry): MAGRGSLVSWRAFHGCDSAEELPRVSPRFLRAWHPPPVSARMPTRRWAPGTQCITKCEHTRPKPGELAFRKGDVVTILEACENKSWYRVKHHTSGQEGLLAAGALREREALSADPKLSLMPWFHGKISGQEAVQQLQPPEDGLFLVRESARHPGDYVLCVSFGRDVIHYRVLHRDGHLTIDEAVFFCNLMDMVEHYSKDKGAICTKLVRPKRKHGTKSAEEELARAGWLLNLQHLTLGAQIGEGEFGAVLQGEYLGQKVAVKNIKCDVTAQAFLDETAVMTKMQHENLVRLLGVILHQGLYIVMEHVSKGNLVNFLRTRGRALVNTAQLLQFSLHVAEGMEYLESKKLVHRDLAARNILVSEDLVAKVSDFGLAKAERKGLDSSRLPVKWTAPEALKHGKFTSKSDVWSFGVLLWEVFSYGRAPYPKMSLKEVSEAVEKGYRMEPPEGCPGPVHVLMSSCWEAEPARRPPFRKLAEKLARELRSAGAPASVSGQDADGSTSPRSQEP
# DYRK1B = biological target: T30, DYRK1B (Homo sapiens, UniProt Q9Y463); test: as above; format: binding; settings: read-out: % control
# T30 construct: purchased DiscoveRx/Eurofin
# EGFR(G719S) = biological target: T31, EGFR(G719S) (Homo sapiens, UniProt P00533, G719S); test: as above; format: binding; settings: read-out: % control
# T31 construct: purchased DiscoveRx/Eurofin
# [4] = tested on: cerebellar granule neurons (CGNs); test: Neuroprotection in cerebellar granule neurons switched from HK to LK medium; format: cell-based; settings: 1, 5 and 25 uM, viability 24 h later, single experiment in duplicate
# Procedure: as §1, §2
# EGFR(G719C) = biological target: T32, EGFR(G719C) (Homo sapiens, UniProt P00533, G719C); test: KINOMEscan kinome profiling (DiscoveRx/Eurofin platform); format: binding; settings: read-out: % control
# T32 construct: purchased DiscoveRx/Eurofin
# DLK (MAP3K12) = biological target: T33, DLK (MAP3K12) (Homo sapiens, UniProt Q12852); test: as above; format: binding; settings: KINOMEscan DLK (Entrez MAP3K12), read-out: % control
# T33 construct: purchased DiscoveRx/Eurofin
# CSNK2A2 = biological target: T34, CSNK2A2 (Homo sapiens, UniProt P19784); test: as above; format: binding; settings: read-out: % control
# T34 construct: purchased DiscoveRx/Eurofin
# CDKs = test: Kinome profiling of NGN-006; format: binding; settings: kinases that HSB-13 inhibits
# DDR1 = biological target: T35, DDR1 (Homo sapiens, UniProt Q08345); test: KINOMEscan kinome profiling (DiscoveRx/Eurofin platform); format: binding; settings: read-out: % control
# T35 construct: purchased DiscoveRx/Eurofin
# CSNK1G3 = biological target: T36, CSNK1G3 (Homo sapiens, UniProt Q9Y6M4); test: as above; format: binding; settings: read-out: % control
# T36 construct: purchased DiscoveRx/Eurofin
# T36 sequence (Q9Y6M4 whole entry): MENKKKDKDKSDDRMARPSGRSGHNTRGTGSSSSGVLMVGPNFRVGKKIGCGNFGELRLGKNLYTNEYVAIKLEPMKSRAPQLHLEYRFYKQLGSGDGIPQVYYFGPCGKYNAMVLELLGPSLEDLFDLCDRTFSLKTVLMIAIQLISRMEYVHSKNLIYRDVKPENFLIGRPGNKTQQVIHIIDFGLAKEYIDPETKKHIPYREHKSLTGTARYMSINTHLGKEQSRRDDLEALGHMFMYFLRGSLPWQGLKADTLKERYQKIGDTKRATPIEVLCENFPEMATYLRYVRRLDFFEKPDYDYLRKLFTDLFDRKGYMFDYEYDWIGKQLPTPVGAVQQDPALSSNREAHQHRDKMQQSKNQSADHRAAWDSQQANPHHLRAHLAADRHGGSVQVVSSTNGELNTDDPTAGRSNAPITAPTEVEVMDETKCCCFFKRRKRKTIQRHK
# 451 kinases = test: Kinome profiling, count of kinases inhibited in the whole panel; format: binding; settings: substantially defined as over 36% inhibition at 1 uM
# p38 MAPK = test: Kinome profiling of NGN-006; format: binding; settings: kinase that HSB-13 inhibits
# CLK3 = biological target: T37, CLK3 (Homo sapiens, UniProt P49761); test: KINOMEscan kinome profiling (DiscoveRx/Eurofin platform); format: binding; settings: read-out: % control
# T37 construct: purchased DiscoveRx/Eurofin
# DRAK1/STK17a = biological target: T38, DRAK1/STK17a (Homo sapiens, UniProt Q9UEE5); test: as above; format: binding; settings: KINOMEscan DRAK1 (Entrez STK17A), read-out: % control
# T38 construct: purchased DiscoveRx/Eurofin
# T38 sequence (Q9UEE5 whole entry): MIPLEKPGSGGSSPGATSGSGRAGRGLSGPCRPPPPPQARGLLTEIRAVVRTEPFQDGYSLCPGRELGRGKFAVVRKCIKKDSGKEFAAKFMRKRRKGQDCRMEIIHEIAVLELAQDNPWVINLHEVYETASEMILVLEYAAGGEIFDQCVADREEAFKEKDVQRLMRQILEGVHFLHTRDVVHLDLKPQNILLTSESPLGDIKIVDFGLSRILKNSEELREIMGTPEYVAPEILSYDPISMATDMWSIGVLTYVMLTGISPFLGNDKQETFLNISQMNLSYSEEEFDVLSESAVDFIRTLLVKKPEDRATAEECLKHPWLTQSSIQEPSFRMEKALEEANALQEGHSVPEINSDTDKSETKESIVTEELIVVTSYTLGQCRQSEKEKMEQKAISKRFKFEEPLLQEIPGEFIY
# CLK4 = biological target: T39, CLK4 (Homo sapiens, UniProt Q9HAZ1); test: as above; format: binding; settings: read-out: % control
# T39 construct: purchased DiscoveRx/Eurofin
# CLK1 = biological target: T40, CLK1 (Homo sapiens, UniProt P49759); test: as above; format: binding; settings: read-out: % control
# T40 construct: purchased DiscoveRx/Eurofin
compound,measurement,setting,value
"Nc1ccc2c(c1)NC(=O)/C(=C/c1ccc(Cl)cc1)O2 [NGN-006, (2Z)-6-amino-2-[(4-chlorophenyl)methylidene]-3,4-dihydro-2H-1,4-benzoxazin-3-one]",neuroprotection (viability),cortical neurons,protective
same,remaining binding at 1 µM,DYRK1A,100%
same,remaining binding at 1 µM,DYRK2,100%
same,remaining binding at 1 µM,DCAMKL1 (DCLK1),100%
same,remaining binding at 1 µM,CSF1R -autoinhibited,100%
same,% control,"EGFR(L747-T751del,Sins)",100%
same,remaining binding at 1 µM,DCAMKL3 (DCLK3),100%
same,remaining binding at 1 µM,DMPK,100%
same,remaining binding at 1 µM,CSNK1A1L,100%
same,remaining binding at 1 µM,"DRAK2 (STK17B); KINOMEscan DRAK2 (Entrez STK17B), 1 uM, read-out: % control",83%
same,kinase inhibition (in words),DRAK2 (STK17B); closely-related DRAK2 protein,not inhibited
same,remaining binding at 1 µM,CSNK1A1,100%
same,remaining binding at 1 µM,EGFR(E746-A750del),100%
same,remaining binding at 1 µM,CSNK1G1,100%
same,remaining binding at 1 µM,DAPK3,88%
same,remaining binding at 1 µM,EGFR,87%
same,remaining binding at 1 µM,DMPK2 (CDC42BPG),96%
same,kinase inhibition (in words),GSK3β,does not inhibit
same,remaining binding at 1 µM,DAPK1,100%
same,remaining binding at 1 µM,CSK,97%
same,remaining binding at 1 µM,[1],92%
same,remaining binding at 1 µM,CSNK1E,89%
same,kinase inhibition (in words),[2],not inhibited
same,remaining binding at 1 µM,CSNK1G2,100%
same,remaining binding at 1 µM,CLK2,100%
same,remaining binding at 1 µM,CSF1R,100%
same,remaining binding at 1 µM,DDR2,100%
same,remaining binding at 1 µM,[3],100%
same,remaining binding at 1 µM,CIT,100%
same,remaining binding at 1 µM,DCAMKL2 (DCLK2),98%
same,remaining binding at 1 µM,CSNK2A1,100%
same,remaining binding at 1 µM,DAPK2,86%
same,remaining binding at 1 µM,CSNK1D,100%
same,remaining binding at 1 µM,CTK (MATK),100%
same,remaining binding at 1 µM,DYRK1B,100%
same,remaining binding at 1 µM,EGFR(G719S),98%
same,neuroprotection (viability),[4],protective
same,remaining binding at 1 µM,EGFR(G719C),100%
same,remaining binding at 1 µM,DLK (MAP3K12),100%
same,remaining binding at 1 µM,CSNK2A2,100%
same,kinase inhibition (in words),CDKs,does not inhibit
same,remaining binding at 1 µM,DDR1,100%
same,remaining binding at 1 µM,CSNK1G3,84%
same,kinases inhibited substantially of the 451 kinases tested,451 kinases,only DRAK1/STK17a
same,kinase inhibition (in words),p38 MAPK,does not inhibit
same,remaining binding at 1 µM,CLK3,92%
same,remaining binding at 1 µM,DRAK1/STK17a,26%
same,remaining binding at 1 µM,CLK4,100%
same,remaining binding at 1 µM,CLK1,79%
